Source: patent publication US9376432B2, “Use of VEGFR-3 inhibitors for treating hepatocellular carcinoma” (Sanofi, priority 2012, dated 2016)

Key:
hepatocellular carcinoma = settings: HCC patients; literature; cited from earlier work
VEGFR-3 = VEGFR-3 (Homo sapiens, UniProt P35916); settings: disclosed in the '145 application; read-out: IC50, inhibition of recombinant VEGFR-3 TK activity and autophosphorylation in HEK cells; cited from earlier work
primary lymphatic cells = experiment: VEGFC- and VEGFD-induced proliferation of primary lymphatic cells; assay type: cell-based; settings: read-out: IC50, inhibition of VEGFC- and VEGFD-induced proliferation
[1] = test system: 85 different kinases and 107 receptors, enzymes and ion channels; experiment: selectivity versus other kinases, receptors, enzymes and ion channels
[2] = test system: HepG2 cell line orthotopic xenograft; experiment: HepG2 cell line orthotopic xenograft model (murine hepatocarcinoma xenograft); assay type: in vivo, SCID mice; settings: 100 mg/kg once a day
Method: The in vivo anti-tumor efficacy of the compound of Example 1 in HepG2 cell line orthotopic xenograft model was evaluated. The HepG2 cells were injected into liver of SCID mice (obtained from ATCC) and mice were randomized into 2 groups 14 days post cell injection: a control group treated with vehicle and the compound of Example 1-treated group. Treatment was performed once a day at 100 mg/kg in methyl cellulose tween as vehicle.
The tumor size was measured by weighting the left lobe with the tumor at day 28. […] Normal liver lobe was also measured and deduced from the lobe of tumor bearing mice. […] (See FIG. 1).

[3] = test system: DEN-induced hepatocarcinoma; experiment: DEN chemical-induced hepatocarcinoma in mice; assay type: in vivo, male C3H mice
Method: DEN (N-diethynitrosamine)-induced mouse model has been validated as a representative model for human HCC Wu et al. J. Cancer Res. Clin. Oncol. (2009) 135. 969-981; Chuang et al. Carcinogenesis (2000) 21; 331-335).
Tumor initiation was achieved by a single intra peritoneal injection of 10 mg/kg of N-diethylnitrosamine (DEN) in male C3H mice (Charles river laboratories France) at the age of 5 weeks.
Mice developed tumors in the liver from the 7th month post DEN administration but the incidence reached 100% at the 12th month. The compound of Example 1 was daily administrated P.O. (orally) after suspension in methyl cellulose tween, between the 10th and 12th month after DEN administration.
The body weight was evaluated each week during treatment and on the 12th months. Mice were killed by overdose of sodium pentobarbital, and livers were removed and weighted. The number of tumors per liver was counted and the tumor volume was measured with calipers. The tumor volume V was calculated using formula V=0.52×a^2×b, where “a” represents the smallest tumor diameter and “b” the largest tumor diameter.

VEGFR-1 = VEGFR-1 (Homo sapiens, UniProt P17948); settings: same assays as VEGFR-3; disclosed in the '145 application; cited from earlier work
Chain of VEGFR-1 (P17948 27-1338): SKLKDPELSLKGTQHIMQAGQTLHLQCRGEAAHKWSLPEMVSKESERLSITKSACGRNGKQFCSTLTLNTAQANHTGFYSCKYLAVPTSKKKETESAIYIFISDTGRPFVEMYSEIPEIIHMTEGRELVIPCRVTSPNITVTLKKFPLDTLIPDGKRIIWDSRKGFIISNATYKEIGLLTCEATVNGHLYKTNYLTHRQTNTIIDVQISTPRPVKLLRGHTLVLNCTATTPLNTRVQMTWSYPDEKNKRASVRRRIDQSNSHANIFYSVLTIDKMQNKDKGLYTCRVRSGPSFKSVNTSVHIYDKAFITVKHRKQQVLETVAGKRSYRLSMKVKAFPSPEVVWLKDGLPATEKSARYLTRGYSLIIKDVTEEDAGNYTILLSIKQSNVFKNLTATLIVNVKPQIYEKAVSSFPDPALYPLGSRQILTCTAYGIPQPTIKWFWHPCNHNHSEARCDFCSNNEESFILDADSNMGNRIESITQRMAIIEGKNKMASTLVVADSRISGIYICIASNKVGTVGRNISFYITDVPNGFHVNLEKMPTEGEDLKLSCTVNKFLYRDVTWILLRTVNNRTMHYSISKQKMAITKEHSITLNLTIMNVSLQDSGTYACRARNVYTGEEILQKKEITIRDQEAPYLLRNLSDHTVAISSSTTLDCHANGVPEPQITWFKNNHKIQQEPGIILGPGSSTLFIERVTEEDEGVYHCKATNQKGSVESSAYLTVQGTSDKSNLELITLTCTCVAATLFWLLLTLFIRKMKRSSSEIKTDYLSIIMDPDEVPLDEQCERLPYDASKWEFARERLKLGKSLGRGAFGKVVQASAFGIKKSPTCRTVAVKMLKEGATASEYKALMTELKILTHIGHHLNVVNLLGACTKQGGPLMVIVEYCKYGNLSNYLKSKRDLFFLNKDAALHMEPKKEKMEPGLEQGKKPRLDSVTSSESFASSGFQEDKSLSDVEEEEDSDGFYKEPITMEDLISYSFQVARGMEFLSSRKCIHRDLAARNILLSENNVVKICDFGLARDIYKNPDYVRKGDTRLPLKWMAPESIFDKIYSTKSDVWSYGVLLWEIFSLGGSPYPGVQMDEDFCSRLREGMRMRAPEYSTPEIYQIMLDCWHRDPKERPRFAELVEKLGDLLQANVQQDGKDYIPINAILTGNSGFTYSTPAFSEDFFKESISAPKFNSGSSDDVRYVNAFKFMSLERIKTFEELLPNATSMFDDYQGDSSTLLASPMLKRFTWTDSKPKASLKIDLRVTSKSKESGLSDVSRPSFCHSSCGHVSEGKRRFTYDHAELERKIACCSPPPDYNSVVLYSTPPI

[4] = daily P.O. between 10th and 12th month after DEN, vs vehicle group
[5] = late treatment, 10th to 12th month after DEN, compared to same parameters at the 10th month

Chain of VEGFR-3 (P35916 25-1363): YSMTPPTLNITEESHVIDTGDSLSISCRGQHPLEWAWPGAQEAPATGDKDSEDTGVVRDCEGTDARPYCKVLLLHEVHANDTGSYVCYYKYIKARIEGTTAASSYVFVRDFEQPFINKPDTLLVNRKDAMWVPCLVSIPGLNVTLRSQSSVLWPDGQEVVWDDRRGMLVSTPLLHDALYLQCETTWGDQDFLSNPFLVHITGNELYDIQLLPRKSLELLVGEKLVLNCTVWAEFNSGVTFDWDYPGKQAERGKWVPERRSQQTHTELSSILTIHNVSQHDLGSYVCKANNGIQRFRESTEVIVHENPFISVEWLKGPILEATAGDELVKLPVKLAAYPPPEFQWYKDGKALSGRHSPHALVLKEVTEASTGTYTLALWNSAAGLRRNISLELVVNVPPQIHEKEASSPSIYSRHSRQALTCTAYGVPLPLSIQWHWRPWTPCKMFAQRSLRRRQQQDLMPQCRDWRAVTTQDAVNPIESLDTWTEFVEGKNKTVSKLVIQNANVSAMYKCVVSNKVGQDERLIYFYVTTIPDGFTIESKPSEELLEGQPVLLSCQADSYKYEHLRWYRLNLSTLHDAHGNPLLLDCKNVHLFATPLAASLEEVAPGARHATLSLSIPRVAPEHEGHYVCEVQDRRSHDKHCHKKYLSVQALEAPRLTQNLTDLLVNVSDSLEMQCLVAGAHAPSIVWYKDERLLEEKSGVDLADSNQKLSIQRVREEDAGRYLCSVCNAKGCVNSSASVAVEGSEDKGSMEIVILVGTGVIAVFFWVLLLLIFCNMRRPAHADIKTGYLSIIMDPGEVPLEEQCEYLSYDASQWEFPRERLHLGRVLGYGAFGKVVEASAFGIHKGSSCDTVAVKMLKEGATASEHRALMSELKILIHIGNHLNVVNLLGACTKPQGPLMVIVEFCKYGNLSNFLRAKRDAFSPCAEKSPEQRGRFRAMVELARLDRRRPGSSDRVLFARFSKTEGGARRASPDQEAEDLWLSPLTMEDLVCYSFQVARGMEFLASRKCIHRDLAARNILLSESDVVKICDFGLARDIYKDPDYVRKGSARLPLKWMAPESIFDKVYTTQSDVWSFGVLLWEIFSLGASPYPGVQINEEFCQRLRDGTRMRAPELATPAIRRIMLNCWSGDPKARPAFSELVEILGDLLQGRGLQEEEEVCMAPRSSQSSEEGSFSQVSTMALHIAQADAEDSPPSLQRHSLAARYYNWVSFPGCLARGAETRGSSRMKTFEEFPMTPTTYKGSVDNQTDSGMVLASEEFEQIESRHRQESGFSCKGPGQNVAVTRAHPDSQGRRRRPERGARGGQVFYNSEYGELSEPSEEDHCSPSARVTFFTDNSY

SMILES | OS (overall survival) gain over placebo (hepatocellular carcinoma) | IC50 (VEGFR-3) | IC50 (primary lymphatic cells) | selectivity for VEGFR-3 compared to other tested kinases, receptors, enzymes and ion channels [1] | decrease of mean weight of the liver lobe bearing the tumor ([2]; from 14 days post cell injection, Day 28 post cell injection, vs vehicle, p=0.001) | reduction of tumor weight (normal liver lobe weight deduced) ([2]; Day 28, normal liver lobe deduced from lobe of tumor bearing mice) | total liver weight ([3]; daily P.O. between 10th and 12th month after DEN) | reduction of number of tumors/liver [3, 4] | reduction of total tumor volume [3, 4] | formation of new loci compared to the 10th month [3, 5] | tumor development compared to the 10th month [3, 5] | IC50 (VEGFR-1)
CNC(=O)c1cc(Oc2ccc(NC(=O)Nc3ccc(Cl)c(C(F)(F)F)c3)cc2)ccn1 [Sorafenib] | 2-3 months |  |  |  |  |  |  |  |  |  |  | 
CCn1c(N)c(-c2ncc[nH]2)c(=O)c2ccc(C#C[C@@](C)(O)CO)nc21 [Example 2, 2-Amino-7-((3R)3,4-dihydroxy-3-methyl-but-1-ynyl)-1-ethyl-3-(1H-imidazol-2-yl)-1,8-naphthyridin-4(1H)-one] |  | ~47 nM |  |  |  |  |  |  |  |  |  | 
CCn1c(N)c(-c2ncc[nH]2)c(=O)c2ccc(C#C[C@@](C)(O)COC)nc21 [Example 1, 2-Amino-1-ethyl-7-((3R)-3-hydroxy-4-methoxy-3-methyl-but-1-ynyl)-3-(1H-imidazol-2-yl)-1H-[1,8]-naphthyridin-4-one] |  | ~25 nM | 10 to 15 nM | highly selective for VEGFR-3 | 34% | 62% | reduced and almost normalized | 50% | 85% | prevented the formation of new loci | completely blocked tumor development | > 1000 nM
